# Reference: US20240124491A1, “METHODS AND COMPOUNDS FOR TREATING FRIEDREICH'S ATAXIA” (Design Therapeutics, Inc., priority 2021, published 2024)
# Tested on: human FXN
# Experiment: EC50 assay: FXN mRNA expression by qRT-PCR in GM15850 cells after 48 hrs compound treatment
# Assay type: cell-based
# Details: 48 hrs incubation, hFXN expression normalized to hGAPDH (qRT-PCR), read-out: EC50 WT (nM, 48 hr)
# Protocol: Cell culture: Cells were cultured in RPMI1640 medium+15% FBS. Cells were maintained at a density between 2e5/mL and 1e6/mL. Cells were centrifuged, resuspended in fresh medium, counted and plated at 150,000 cells per well in 100 uL in a non-coated, flat bottom tissue culture plate.
# Compound treatment: 10 mM stock solution of FA GeneTAC was diluted 1:10 in DMSO followed by a 1:100 dilution in growth medium. Working solution was then further diluted to 10× desired final concentration of 150 nM. Compound was then diluted at a 1:3 ratio into growth medium containing 0.01% DMSO. 5-point, 3-fold dose response curve was generated. 11 μL of 1OX compound was added to wells containing 100 μL cell suspension of GM15850. 11 μL growth medium containing 0.01% DMSO was added to all wells not treated with FA GeneTAC. Cells were allowed to incubate for 48 hrs prior to cell lysis using guanidine isothiocyanate solution.
# RNA isolation: Total RNA was isolated and purified in 384-well column filter plates using chaotropic salt.
# qRT-PCR: qRT-PCR reactions were assembled using AgPath-ID reagents (Thermo Fisher) using 6 uL mastermix and 4 μL RNA. qRT-PCR TaqMan primer probe sets against human FXN (Assay ID Hs01075496_m1) and human GAPDH (Assay ID Hs00266705_g1) were used to measure the intended targets. qRT-PCR was run on the ThermoFisher QuantStudio 6 PRO instrument using the manufacturer's recommended cycling conditions.
# Data analysis: qPCR data was analyzed using Thermo Fisher Design and Analysis software. Data was exported to Excel and hFXN expression was normalized to hGAPDH expression
# A<100 nM; B is 100 nM to 500 nM; C>500 nM.
row,SMILES,EC50 [nM]
1,"C=C(C)c1ccc(Oc2c(C)cc(F)cc2C)c(-c2cn(C)c(=O)c3[nH]c(C(=O)Nc4ccc(OCCOCCOCCOCCOCCOCCOCCOCCOCCNC(=O)CCNC(=O)c5nc(NC(=O)CCNC(=O)c6cc(NC(=O)c7nc(NC(=O)CCNC(=O)c8cc(NC(=O)c9nccn9C)cn8C)cn7C)cn6C)cn5C)cc4)cc23)c1 [Compound 197, N-(5-{[2-({2-[(2-{[26-(4-{14-[2-(4-fluoro-2,6-dimethylphenoxy)-5-(prop-1-en-2-yl)phenyl]-6-methyl-7-oxo-1H-pyrrolo[2,3-c]pyridine-2-amido}phenoxy)-3,6,9,12,15,18,21,24-octaoxahexacosan-1-yl]carbamoyl]ethyl)carbamoyl]-1-methylimidazol-4-yl]carbamoyl)ethyl]carbamoyl]-1-methylpyrrol-3-yl)-1-methyl-4-(3-{[1-methyl-4-(1-methylimidazole-2-amido)pyrrol-2-yl]formamido]propanamido)imidazole-2-carboxamide]",100 to 500

# Same assay, conditions: Homo sapiens, 48 hrs incubation, hFXN expression normalized to hGAPDH (qRT-PCR), read-out: EC50 WT (nM, 48 hr)
row,SMILES,EC50 [nM]
1,"Cc1cc(F)cc(C)c1Oc1ccc(C(C)(C)O)cc1-c1cn(C)c(=O)c2[nH]c(C(=O)Nc3ccc(OCCOCCOCCOCCOCCOCCOCCOCCOCCNC(=O)c4cc(NC(=O)c5nc(NC(=O)c6cc(NC(=O)c7ccc8nc(-c9nccn9C)[nH]c8c7)cn6C)cn5C)cn4C)cc3)cc12 [Compound 215, N-[5-({2-[(5-{[26-(4-{4-[2-(4-fluoro-2,6-dimethylphenoxy)-5-(2-hydroxypropan-2-yl)phenyl]-6-methyl-7-oxo-1H-pyrrolo[2,3-c]pyridine-2-amido}phenoxy)-3,6,9,12,15,18,21,24-octaoxahexacosan-1-yl]carbamoyl}-1-methylpyrrol-3-yl)carbamoyl]-1-methylimidazol-4-yl]carbamoyl)-1-methylpyrrol-3-yl]-2-(1-methylimidazol-2-yl)-3H-1,3-benzodiazole-5-carboxamide]",> 500
2,Cc1sc2c(c1C)C(c1ccc(Cl)cc1)=N[C@@H](CC(=O)N1CCC(C#CC#CCNCCOCCOCCOCCOCCOCCNC(=O)CCNC(=O)c3nc(NC(=O)CCNC(=O)c4cc(NC(=O)c5nc(NC(=O)CCNC(=O)c6cc(NC(=O)c7nccn7C)cn6C)cn5C)cn4C)cn3C)CC1)c1nnc(C)n1-2 [Compound 40],< 100
3,Cc1sc2c(c1C)C(c1ccc(Cl)cc1)=N[C@@H](CC(=O)NC1CCN(CCOCCOCCOCCOCCOCCOCCOCCOCCNC(=O)CCNC(=O)c3nc(NC(=O)CCNC(=O)c4cc(NC(=O)c5nc(NC(=O)CCNC(=O)c6cc(NC(=O)c7nccn7C)cn6C)cn5C)cn4C)cn3C)CC1)c1nnc(C)n1-2 [Compound 88],< 100
4,Cc1sc2c(c1C)C(c1ccc(Cl)cc1)=N[C@@H](CC(=O)NC1CCN(CCOCCOCCOCCOCCN3CCN(CCOCCOCCNC(=O)CCNC(=O)c4nc(NC(=O)CCNC(=O)c5cc(NC(=O)c6nc(NC(=O)CCNC(=O)c7cc(NC(=O)c8nccn8C)cn7C)cn6C)cn5C)cn4C)CC3)CC1)c1nnc(C)n1-2 [Compound 108],< 100
5,COCCOCCOCCOCCOCCOCCOCCOCCOCCOCCOCCC(=O)N1CCC(NC(=O)CCOCCOCCOCCN2CCC(NC(=O)C[C@@H]3N=C(c4ccc(Cl)cc4)c4c(sc(C)c4C)-n4c(C)nnc43)CC2)(C(=O)NCCOCCOCCOCCOCCNC(=O)CCNC(=O)c2nc(NC(=O)CCNC(=O)c3cc(NC(=O)c4nc(NC(=O)CCNC(=O)c5cc(NC(=O)c6nccn6C)cn5C)cn4C)cn3C)cn2C)CC1 [Compound 76],100 to 500
6,Cc1sc2c(c1C)C(c1ccc(Cl)cc1)=N[C@@H](CC(=O)N1CCN(CC3CCN(CCOCCOCCOCCOCCOCCN4CCC(CN5CCN(C(=O)CCNC(=O)c6nc(NC(=O)CCNC(=O)c7cc(NC(=O)c8nc(NC(=O)CCNC(=O)c9cc(NC(=O)c%10nccn%10C)cn9C)cn8C)cn7C)cn6C)CC5)CC4)CC3)CC1)c1nnc(C)n1-2 [Compound 18],> 500
7,Cc1sc2c(c1C)C(c1ccc(Cl)cc1)=N[C@@H](CC(=O)NCCCCCN(CCCCCNC(=O)C[C@@H]1N=C(c3ccc(Cl)cc3)c3c(sc(C)c3C)-n3c(C)nnc31)CCOCCOCCOCCOCCOCCOCCOCCNC(=O)CCNC(=O)c1nc(NC(=O)CCNC(=O)c3cc(NC(=O)c4nc(NC(=O)CCNC(=O)c5cc(NC(=O)c6nccn6C)cn5C)cn4C)cn3C)cn1C)c1nnc(C)n1-2 [Compound 114],< 100
8,Cc1sc2c(c1C)C(c1ccc(Cl)cc1)=N[C@@H](CC(=O)N1CCC(C#CC#CC3CCN(CCNC(=O)CCNC(=O)c4nc(NC(=O)CCNC(=O)c5cc(NC(=O)c6nc(NC(=O)CCNC(=O)c7cc(NC(=O)c8nccn8C)cn7C)cn6C)cn5C)cn4C)CC3)CC1)c1nnc(C)n1-2 [Compound 161],< 100
9,Cc1cc(F)cc(C)c1Oc1ccc(C(C)(C)O)cc1-c1cn(C)c(=O)c2[nH]c(C(=O)NCCOCCOCCOCCOCCOCCOCCOCCOCCNC(=O)CCNC(=O)c3nc(NC(=O)CCNC(=O)c4cc(NC(=O)c5nc(NC(=O)CCNC(=O)c6cc(NC(=O)c7nccn7C)cn6C)cn5C)cn4C)cn3C)cc12 [Compound 50],< 100
10,Cc1sc2c(c1C)C(c1ccc(Cl)cc1)=N[C@@H](CC(=O)N1CCN(CCOCCOCCOCCOCCOCCOCCOCCOCCNC(=O)CCNC(=O)c3nc(NC(=O)CCNC(=O)c4cc(NC(=O)c5nc(NC(=O)CCNC(=O)c6cc(NC(=O)c7nccn7C)cn6C)cn5C)cn4C)cn3C)CC1)c1nnc(C)n1-2 [Compound 101],> 500
11,Cc1cc(F)cc(C)c1Oc1ccc(C(C)(C)O)cc1-c1cn(C)c(=O)c2[nH]c(C(=O)Nc3ccc(OCCOCCOCCOCCOCCOCCOCCOCCOCCNC(=O)CCNC(=O)c4nc(NC(=O)CCNC(=O)c5cc(NC(=O)c6nc(NC(=O)CCNC(=O)c7cc(NC(=O)c8nccn8C)cn7C)cn6C)cn5C)cn4C)c(OC(=O)c4cc5c(-c6cc(C(C)(C)O)ccc6Oc6c(C)cc(F)cc6C)cn(C)c(=O)c5[nH]4)c3)cc12 [Compound 240],< 100
12,Cc1cc(F)cc(C)c1Oc1ccc(C(C)(C)O)cc1-c1cn(C)c(=O)c2[nH]c(C(=O)NC3CCN(CCOCCOCCOCCOCCOCCOCCOCCOCCNC(=O)CCNC(=O)c4nc(NC(=O)CCNC(=O)c5cc(NC(=O)c6nc(NC(=O)CCNC(=O)c7cc(NC(=O)c8nccn8C)cn7C)cn6C)cn5C)cn4C)CC3)cc12 [Compound 47],< 100
13,Cc1sc2c(c1C)C(c1ccc(Cl)cc1)=N[C@@H](CC(=O)NC1CCN(CCOCCOCCN3CCN(CCOCCOCCOCCOCCNC(=O)CCNC(=O)c4nc(NC(=O)CCNC(=O)c5cc(NC(=O)c6nc(NC(=O)CCNC(=O)c7cc(NC(=O)c8nccn8C)cn7C)cn6C)cn5C)cn4C)CC3)CC1)c1nnc(C)n1-2 [Compound 106],< 100
14,Cc1sc2c(c1C)C(c1ccc(Cl)cc1)=N[C@@H](CC(=O)NCCCCCN(CCCCCNC(=O)C[C@@H]1N=C(c3ccc(Cl)cc3)c3c(sc(C)c3C)-n3c(C)nnc31)CCOCCOCCOCCOCCOCCNC(=O)CCNC(=O)c1nc(NC(=O)CCNC(=O)c3cc(NC(=O)c4nc(NC(=O)CCNC(=O)c5cc(NC(=O)c6nccn6C)cn5C)cn4C)cn3C)cn1C)c1nnc(C)n1-2 [Compound 113],< 100
15,Cc1sc2c(c1C)C(c1ccc(Cl)cc1)=N[C@@H](CC(=O)NC1CCN(CC#CC#CC3CCN(CCOCCOCCNC(=O)CCNC(=O)c4nc(NC(=O)CCNC(=O)c5cc(NC(=O)c6nc(NC(=O)CCNC(=O)c7cc(NC(=O)c8nccn8C)cn7C)cn6C)cn5C)cn4C)CC3)CC1)c1nnc(C)n1-2 [Compound 155],< 100
16,Cc1sc2c(c1C)C(c1ccc(Cl)cc1)=N[C@@H](CC(=O)N1CCN(C3CN(CCOCCOCCOCCOCCOCCOCCNC(=O)CCNC(=O)c4nc(NC(=O)CCNC(=O)c5cc(NC(=O)c6nc(NC(=O)CCNC(=O)c7cc(NC(=O)c8nccn8C)cn7C)cn6C)cn5C)cn4C)C3)CC1)c1nnc(C)n1-2 [Compound 63],100 to 500
17,COCCOCCOCCOCCOCCOCCOCCOCCOCCOCCOCCC(=O)Nc1ccc(C2=N[C@@H](CC(=O)N3CCC(C#CC#CC4CCN(CCOCCOCCOCCOCCNC(=O)CCNC(=O)c5nc(NC(=O)CCNC(=O)c6cc(NC(=O)c7nc(NC(=O)CCNC(=O)c8cc(NC(=O)c9nccn9C)cn8C)cn7C)cn6C)cn5C)CC4)CC3)c3nnc(C)n3-c3sc(C)c(C)c32)cc1 [Compound 120],100 to 500
18,CCCCCCCCCCCCCCCC(=O)Nc1ccc(C2=N[C@@H](CC(=O)Nc3ccc(OCCOCCOCCOCCOCCOCCOCCOCCOCCNC(=O)CCNC(=O)c4nc(NC(=O)CCNC(=O)c5cc(NC(=O)c6nc(NC(=O)CCNC(=O)c7cc(NC(=O)c8nccn8C)cn7C)cn6C)cn5C)cn4C)cc3)c3nnc(C)n3-c3sc(C)c(C)c32)cc1 [Compound 204],> 500
19,Cc1sc2c(c1C)C(c1ccc(Cl)cc1)=N[C@@H](CC(=O)Nc1ccc(N3CCN(CCOCCOCCOCCOCCOCCOCCOCCNC(=O)CCNC(=O)c4nc(NC(=O)CCNC(=O)c5cc(NC(=O)c6nc(NC(=O)CCNC(=O)c7cc(NC(=O)c8nccn8C)cn7C)cn6C)cn5C)cn4C)CC3)cc1)c1nnc(C)n1-2 [Compound 2],< 100
20,Cc1sc2c(c1C)C(c1ccc(Cl)cc1)=N[C@@H](CC(=O)NC1CCN(C(C)(C)C#CC#CCNCCOCCOCCOCCOCCOCCNC(=O)CCNC(=O)c3nc(NC(=O)CCNC(=O)c4cc(NC(=O)c5nc(NC(=O)CCNC(=O)c6cc(NC(=O)c7nccn7C)cn6C)cn5C)cn4C)cn3C)CC1)c1nnc(C)n1-2 [Compound 159],< 100
